Laboratory results: patent publication US6649762B1, “Crystal modification C of 8-cyano-1-cyclopropyl-7-(1S,6S-2,8-diazabicyclo-[4.3.0]nonan-8-yl)-6-fluoro-1,4-dihyro-4-oxo-3-quinoline carboxylic” (Bayer Aktiengesellschaft, priority 1999, dated 2003)

Legend:
[1] = hygroscopicity of the solid; format: physicochemical; settings: powder obtained by the known preparation process
[2] = storage stability of the crystal modification; format: physicochemical; settings: prolonged storage
pathogenic bacteria = assay: activity against pathogenic bacteria; settings: area of human or veterinary medicine

| Compound | hygroscopicity [1] | stability of the crystal modification (change into another crystal modification or the amorphous form) [2] | activity against pathogenic bacteria (pathogenic bacteria) |
| --- | --- | --- | --- |
| N#Cc1c(N2C[C@@H]3CCCN[C@@H]3C2)c(F)cc2c(=O)c(C(=O)O)cn(C3CC3)c12 [partially amorphous powder, 8-cyano-1-cyclopropyl-7-(1S,6S-2,8-diazabicyclo[4.3.0]nonan-8-yl)-6-fluoro-1,4-dihydro-4-oxo-3-quinolinecarboxylic acid] | hygroscopic | – | – |
| N#Cc1c(N2C[C@@H]3CCCN[C@@H]3C2)c(F)cc2c(=O)c(C(=O)O)cn(C3CC3)c12 [CCDC of the crystal modification C, 8-cyano-1-cyclopropyl-7-(1S,6S-2,8-diazabicyclo[4.3.0]nonan-8-yl)-6-fluoro-1,4-dihydro-4-oxo-3-quinolinecarboxylic acid] | – | does not change into another crystal modification or the amorphous form | highly active |
